Test results: patent US8133971B2, “Polypeptide specifically bound to phosphatidylserine and the use thereof” (Kyungpook National University Industry Academic Cooperation …, priority 2008, dated 2012)
Ends that are not written are not given here. fluorescein = fluorescein bonded at the N-terminus

Experiments:
[1] = system: apoptotic cells (H460 cell); test: competitive inhibition of phage binding to apoptotic cells (phage titer); type: cell-based, Human; details: for phage titer of selected phage bound to apoptotic cells after peptide treatment: peptide 50 μM, H460, versus un-treated group
Protocol: The specificity of the phage to phosphatidylserine bound to apoptotic cells is tested by competitive inhibition with annexin V.
A pre-cultured group, which is cultured for 30 minutes with annexin V (10 μM) before the apoptotic cells (H460 cell) are cultured with the phage, is used for the test. And a control group, which is not pre-cultured with annexin V, is used for the test. Phages are bound and eluted as described in the embodiment 4-1 and then phage titer is measured.
And, phage titer of a group treated with the synthesized peptide (50 μM) according to CLSYYPSYC (SEQ ID NO: 1) of amino acid sequence, which is shown in the selected phage clone, is measured. Phage titer of an un-treated group and a group treated with the peptide of the control group are measured. Phages are bound and eluted as described in the embodiment 4-1 and then phage titer is measured.

H460 cell = test: FACS analysis of labeled peptide binding to normal or apoptotic cells; type: cell-based, Human; details: fluorescein at N-end, 2.5 μM, 15 minutes; for binding of labeled peptide to apoptotic cells by FACS: apoptotic H460 cell
Protocol: Apoptotic cells are treated with a labeled peptide of the present embodiment and then FACS analyses are carried out to confirm that whether the peptide of the present embodiment is bound to phosphatidylserine of apoptotic cells or not.
The peptide used in the present embodiment has a form in which fluorescein is bonded at N-end. The peptide is synthesized according to the standard Fmoc method and separated by HPLC (Peptron Co.) before use.
The final concentration of the peptide of the present embodiment or the control group peptide (amino acid sequence: NSSVDK (SEQ ID NO: 8)) is 2.5 μM and the solution is dissolved in Hepes buffer (pH7.4, Hepes 10 mM, […] 138 mM, and with/without CaCl2). The solution is mixed with normal H460 cell or dead H460 cell (1×10^5 cells/mL) to become 0.5 mL of final volume and then cultured for 15 minutes at room temperature. The cells are washed with a binding buffer and then FACS analyses are immediately carried out (FACSScan, Becton Dickinson, San Jose, Calif.).

H460 cells = test: fluorescence and confocal microscopy of peptide and annexin V marking of cells; type: cell-based, Human; details: for marking of apoptotic cells (fluorescent microscope) / marking of normal cells (fluorescent microscope): fluorescein peptide 10 μM, annexin V Alexa fluor 594; for marking of normal cells (fluorescent microscope): normal H460 cells
Protocol: H460 cells are cultured in a chamber slide (Nalgen Nunc Int.) and apoptosis is induced as described in embodiment 4-1. The apoptotic cells are washed with PBS and then the cells are cultured in tyrodes buffer in the presence of a peptide marked with 10 μM of fluorescein for 30 minutes at room temperature. After that, the cells are cultured with annexin V Alexa fluor 594 (Molecular Probes) for 15 minutes at room temperature. The cells are washed with PBS and then fixed with 4% of paraformaldehyde for 5 minutes. After that, the cells are counterstained by 4′,6-diamidino-2-phenylindole (DAPI) and then the cells are treated with a mounting solution to take a picture by fluorescent microscope (Zeiss, Oberkochen, Germany).
Also as shown in the FIG. 4C, the image is taken by a laser confocal microscope (LEICA).

H460 tumor xenografts [2] = test: in vivo homing and in vivo/ex vivo visualization in tumor xenografts; design: species or system BALB/c male nude mouse; details: for ex vivo fluorescein signal from tumor tissue: tumor removed 2 hours after peptide injection; for in vivo fluorescein signal from tumor tissue: 50 μM through tail vein, after 2 hours
Protocol: All of animal experiments are carried out in accordance with guidelines of the kyoungpook national university. For tumor xenografts, H460 cells (1×10^7 cells) floated on RPMI medium containing 10% FBS are injected hypodermically at a right shoulder of a 6 week old BALB/c male nude mouse (SLC, Inc.). Then, tumor cells are allowed to grow about 0.5 to 1.0 cm for 3 weeks.
The mice having tumor cells are divided into a camptothecin treated group and untreated group, and then the camptothecin treated group is taken a dose of camptothecin (Sigma, 10 mg/kg) at 24 hours before peptide treatment. After that, fluorescein-labeled peptide (fluorescein-labeled CLSYYPSYC (SEQ ID NO: 1)) (50 μM) of the present embodiment or a control group peptide (50 μM) is injected through tail vein under isoflurane anesthesia. The peptide induced to the tumor cells are checked at every hour by the optical visualization system (ART Advanced Research Technologies Inc., Montreal, Canada) using […]/GFP filter after peptide injection. To each used mouse, baseline fluorescence of fluorescein is measured before peptide injection. The obtained image is treated and normalized by eXplore Optix optiView Software. After 2 hours of the peptide injection, the tumor is removed from the mouse and then ex vivo visualization of the tumor cell is carried out. The image is treated as above.

H460 tumor xenografts [3] = test: histological test of in vivo homing (CD31 staining, TUNEL, organs); details: for peptide observed in tumor region stained by CD31: fluorescence microscope
Description: For a histological test, the above mouse undergoes anesthesia and then undergoes laparotomy. PBS and 4% paraformaldehyde (PFA) fixing agent is used for perfusion, and then tumor tissue and organs are removed. After cryosection of each tissue, the peptide of the present embodiment is observed by fluorescence microscope. Tumor vessels are stained by immunohistochemistry using an antibody (BD Pharmigen) to the mouse CD31 and alexa 568 labeled secondary antibody. Cell death in a tumor tissue is verified by TUNEL ([…] terminal deoxynucleotidyl transferase-mediated dUTP nick-end labeling) analyses according to the manufacturer's manual (Chemicon Int. USA).

[4] = phosphatidylserine binding of phage clone in the presence of annexin V (phage ELISA); details: annexin V protein 10 μM
Protocol: The phosphatidylserine binding specificity of the selected phage clone is tested by phosphatidylserine binding in the presence of annexin V.
In short, Immulon 1B microtiter plate is coated with phosphatidylcholine as described in the embodiment 1-2. Then, the plates are blocked with TBS medium containing 10 mg/mL of BSA for 1 hour at room temperature.
The selected phage clone is added to 100 μl of TBS buffer and then the mixture is added to the well coated with phosphatidylcholine. The well is gently shaken for 1 hour at room temperature (incubate). In a group in which annexin V is added, the above phage clone is cultured in the presence of annexin V protein (10 μM) and then 100 μl of TBS buffer is added to the phage clone. The mixture is added to the well coated with phosphatidylserine and then the well is gently shaken for 1 hour at room temperature. The well is strongly washed with TBS-T (TBS containing 0.05% Tween-20) buffer for 6 times and then phages bound to the well are detected by binding HRP (horseradish peroxidase)-bound anti-M13 antibody (New England Biolabs) (dilution, 1:4000 in TBS-T) for 1 hour at room temperature. After that, color reaction is carried out with HRP substrate suspension (TMB, Pierce). The color reaction is stopped by adding 2N H2SO4 and then absorbance is measure by the microplate reader (Bio-Rad, model 550) at 450 nm.

[5] = annexin V binding test of coated plate; details: his-tagged recombinant annexin V 20 μg/mL, 1 hour at room temperature
Protocol: For the preparation of a plate (or well) coated by phosphatidylserine or phosphatidylcholine, phosphatidylserine or phosphatidylcholine is dissolved in ethanol (300 μg/mL, 100 μL), and then the solution is placed and dried in Immulon 1B microtiter plate (Thermo, Milford, Mass., USA) for 6 hours in air. To prevent from non-specific binding, TBS (Tris-HCl 50 mM, pH7.4, NaCl 150 mM) containing 10 mg/mL of BSA (bovine serum albumin) is added to the solution and then blocking is performed for 1 hours at room temperature. The plates coated by phosphatidylserine or phosphatidylcholine are evaluated by annexin V binding test so as to use a coated plate.
To bind annexin V, his-tagged recombinant annexin V protein (20 μg/mL) is dissolved in TBS buffer containing 10 mg/mL of BSA and then the solution is placed ELISA plate coated by phosphatidylserine or phosphatidylcholine. After 1 hour of standing at room temperature, the plate is washed by TBS-T buffer for 3 times and the bound annexin V protein is reacted with mouse anti histidine IgG antibody (Santa Cruz Biotechnology) to which HRP is bound and then binding is tested by the reaction with TBM base.

Substance | phage titer of selected phage bound to apoptotic cells after peptide treatment [1] | binding of labeled peptide to apoptotic cells by FACS (H460 cell) | binding of labeled peptide to normal cells by FACS (H460 cell; normal H460 cell) | marking of apoptotic cells (fluorescent microscope) (H460 cells; apoptotic H460 cells) | binding site on apoptotic cells compared with annexin V (H460 cells; apoptotic H460 cells, photo composition / laser confocal microscope) | marking of normal cells (fluorescent microscope) (H460 cells) | ex vivo fluorescein signal from tumor tissue (H460 tumor xenografts [2]) | location of peptide fluorescent signal relative to TUNEL staining in tumor (H460 tumor xenografts [3]; TUNEL analyses of tumor tissue) | peptide observed in liver and lung tissue (H460 tumor xenografts [3]; control group organs, cryosection) | peptide observed in tumor region stained by CD31 (H460 tumor xenografts [3]; cryosection) | fluorescence by the peptide in kidney (H460 tumor xenografts [3]; cryosection, excreted peptide in the uresis path) | in vivo fluorescein signal from tumor tissue (H460 tumor xenografts [2]) | inhibition of phosphatidylserine binding of the selected phage clone [4] | phage titer of selected phage bound to apoptotic cells after annexin V pre-treatment ([1]; annexin V 10 μM, pre-cultured 30 minutes, H460) | annexin V binding to coated plate [5]
CLSYYPSYC [peptide of the present embodiment] | greatly decreased | certainly bound | not certainly bound | marking is occurred in both cases | bound to the same site | marking is not occurred | intensively monitored | observed mainly in the TUNEL stained region | not observed | a large amount | observed |  |  |  | 
NSSVDK [control group peptide, reference compound] | no difference | not certainly bound |  | marking is occurred in annexin V case only |  |  | very weakly monitored or not monitored |  |  | not observed |  | very weakly monitored or not monitored |  |  | 
annexin V: annexin V protein, phosphatidylserine-binding reference (his-tagged recombinant or Alexa fluor 594 labeled) |  |  |  | marking is occurred |  | marking is not occurred |  |  |  |  |  |  | inhibits | greatly decreased | certainly bound
fluorescein-labeled CLSYYPSYC (fluorescein-CLSYYPSYC; cysteine pairing not given here) [… peptide with fluorescein bonded at N-end] |  |  |  |  |  |  |  |  |  |  |  | intensively detected |  |  | 
